In article PMC10227015, “From a drug repositioning to a structure-based drug design approach to tackle acute lymphoblastic leukemia” (Nature Communications, 2023):
Where two headings read alike, the source gives them in different places.

How the values were obtained:
[1] = tested on: CCRF-CEM cell line; assay: dCK cellular assay: CCRF-CEM proliferation in the presence of dT and dC; format: cell-based, human
Procedure: The dCK cellular assay was set up to assess the ability to inhibit dCK activity in a cellular model. The model was developed with a T-cell acute lymphoblastic leukemia cell line (CCRF-CEM), because of its high dependence on the SP, thus on dCK activity. Cellular assays were performed to assess the inhibition of cell proliferation under two conditions: (i) in the presence of the compound alone to determine the nonspecific effect on cells, independent of dCK (nonspecific toxicity) and (ii) in the presence of an inhibitor of the DNP to determine the ability of compounds to inhibit dCK and decrease tumor proliferation (activity on dCK). The inhibitor of the DNP chosen for the experiments was thymidine (dT), a physiological inhibitor of ribonucleotide reductase which arrests cell proliferation in phase S. The dTTP produced via thymidine kinase from dT acts as a RNR inhibitor by an allosteric regulation of the R1 subunit. The addition of the nucleoside deoxycytidine (dC) in the medium allows the rescue of cell proliferation by passing only through the salvage pathway, mediated by dCK. dC needs to be added exogenously to mimic physiological concentrations because it is not present in the cell culture medium, on the contrary to mouse model, in which it is naturally present in the serum. Therefore, cell proliferation under these conditions (+dT +dC) is dCK dependent and it is possible to determine the IC50 of dCK inhibitors on the inhibition of cell proliferation. Results are expressed as % cell proliferation relative to the control with DMSO.
The amount of reduced dye formed by metabolically active cells was quantified by its fluorescence measured at 560 nm (excitation) and 590 nm (emission) in a microplate reader (CLARIOstar, BMG Labtech). A blank well without cells was used as a background control. Each experiment was performed at least three times (with technical triplicates) and data are presented as the mean ± SD.

[2] = tested on: dCK-C3S-S74E; assay: Thermal shift assay (TSA); conditions: for THERMAL SHIFT ASSAY +Tm (°): mean ± SD; for ΔTm (º) (TSA): Figure 2a, mean
Source text: BL21 pRIL Escherichia coli cells were transformed with dCK-plasmids (dCK-C4S-S74E (for crystallization assays) and dCK-C3S-S74E (for TSA, enzymatic and ITC assays)). […] Protein dCK-C3S-S74E used for other assays contained only three mutated cysteines. The S74E mutation mimics the phosphorylated state of this serine, which favors the open conformation of the enzyme, making it competent for nucleoside binding[45] to evaluate the binding affinity with compounds.
For binding assays (TSA, ITC and crystallography) cells were re-suspended in 50 mM TRIS, pH 8, 500 mM NaCl, 30 mM imidazole and 10% glycerol buffer and one EDTA free anti-protease tablet was added (Roche). After sonication and centrifugation (30,000 × g), the supernatant was loaded on a 5 ml HisTrap FF column (GE healthcare) pre-equilibrated with resuspension buffer. Protein was then eluted by resuspension buffer containing 500 mM imidazole. Protein eluted fractions were mixed and concentrated. Protein was further purified by size exclusion chromatography (superdex 200 16/600, GE healthcare) in 20 mM HEPES, pH 7.5, and 200 mM NaCl before concentration to 30 mg/ml and storage at −80 °C.
Thermal shift assay (TSA) experiments were performed in 384-well PCR white plates in the assay buffer containing 20 mM HEPES, pH 7.5 and 200 mM NaCl. […] Plates were centrifuged at 200 × g for 2 min at 4 °C. […] Raw fluorescence data were treated, and the melting temperatures (Tm) were calculated using CFX Manager 3.1 software (Bio-Rad). ΔTm represents the difference in Tm between the protein in the presence of compound and the protein alone (both at 2% DMSO). Each experiment was performed at least twice (with technical triplicates) and data are presented as the mean ± SD.

[3] = Homo sapiens, read-out: dCK CELLULAR ASSAY IC50 (nM), CCRF-CEM, 200 µM dT and 1 µM dC, read-out: dCK […] ASSAY IC50
[4] = Homo sapiens, Figure 2a, CCRF-CEM cell line, mean, read-out: IC50 (nM) (Cell Prolif)

Chain of dCK-C3S-S74E (P27707 whole entry S74E, form open): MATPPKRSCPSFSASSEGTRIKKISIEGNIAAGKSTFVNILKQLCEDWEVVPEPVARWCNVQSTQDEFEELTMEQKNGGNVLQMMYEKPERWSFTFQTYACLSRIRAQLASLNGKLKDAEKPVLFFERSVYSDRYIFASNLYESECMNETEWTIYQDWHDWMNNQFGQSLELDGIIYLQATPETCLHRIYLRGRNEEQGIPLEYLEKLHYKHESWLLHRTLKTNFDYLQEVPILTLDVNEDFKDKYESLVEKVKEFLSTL

Cc1ccc(NC(=O)c2cnc(CN3CCN(C)CC3)nc2)cc1Nc1nc(-c2nccc(N)n2)cs1 [OR0125]
IC50 [1, 3]: 37700 ± 4380 nM
THERMAL SHIFT ASSAY +Tm (°) [2]: 10.3 ± 0.0 °

Cc1ccc(Oc2ccc(CN3CCN(C)CC3)cc2)cc1Nc1nc(-c2nccc(N)n2)cs1 [OR0143]
IC50 [1, 3]: 2790 ± 1740 nM
THERMAL SHIFT ASSAY +Tm (°) [2]: 13.2 ± 0.2 °

CN1CCN(CCc2ccc(-c3ccc4c(c3)N(c3nc(-c5nccc(N)n5)cs3)CCCC4)cc2)CC1 [OR0402]
IC50 [1, 3]: 1760 ± 160 nM
THERMAL SHIFT ASSAY +Tm (°) [2]: 19.2 ± 0.3 °

Cc1ccc(-c2ccc(CCN3CCN(C)CC3)cc2)cc1N(CC1CC1)c1nc(-c2nc(N)cc(N)n2)cs1 [OR0604]
IC50 [1, 4]: 609 nM
ΔTm (º) (TSA) [2]: 19.7 º
THERMAL SHIFT ASSAY +Tm (°) [2]: 19.7 ± 1.0 °

Cc1ccc(-c2ccc(CCN3CCN(C)CC3)cc2)cc1N(CCC(C)C)c1nc(-c2nc(N)cc(N)n2)cs1 [OR0605]
IC50 [1, 4]: 2220 nM
ΔTm (º) (TSA) [2]: 18.67 º
THERMAL SHIFT ASSAY +Tm (°) [2]: 18.7 ± 0.6 °

CCCCN(c1nc(-c2nc(N)cc(N)n2)cs1)c1cc(-c2ccc(CCN3CCN(C)CC3)cc2)ccc1C [OR0606]
IC50 [1, 4]: 552 nM
ΔTm (º) (TSA) [2]: 19.85 º
THERMAL SHIFT ASSAY +Tm (°) [2]: 19.9 ± 0.5 °

Cc1ccc(-n2cc(CNS(C)(=O)=O)nn2)cc1N(CC(C)C)c1nc(-c2nc(N)cc(N)n2)cs1 [OR0609]
IC50 ([1]; Figure 2a, CCRF-CEM cell line, mean, read-out: IC50 (nM) (Cell Prolif)): 3180 nM
ΔTm (º) (TSA) [2]: 13.5 º
THERMAL SHIFT ASSAY +Tm (°) [2]: 13.5 ± 0.7 °

Cc1ccc(-c2ccc(CCN3CCN(C)CC3)cc2)cc1N(CCN)c1nc(-c2nc(N)cc(N)n2)cs1 [OR0610]
IC50 [1, 4]: 16400 nM
ΔTm (º) (TSA) [2]: 14.7 º
THERMAL SHIFT ASSAY +Tm (°) [2]: 14.7 ± 0.2 °

CCCN(c1nc(-c2nc(N)cc(N)n2)cs1)c1cc(-c2ccc(NC(=O)N3CCN(C)CC3)nc2)ccc1C [OR0616]
IC50 [1, 4]: 135 nM
ΔTm (º) (TSA) [2]: 19.23 º
THERMAL SHIFT ASSAY +Tm (°) [2]: 19.2 ± 0.8 °

CCCN(c1nc(-c2nc(N)cc(N)n2)cs1)c1cc(-c2ccc(CN(C)C)cc2)ccc1C [OR0619]
IC50 [1, 4]: 614 nM
ΔTm (º) (TSA) [2]: 16.88 º
THERMAL SHIFT ASSAY +Tm (°) [2]: 16.9 ± 0.5 °

CCCN(c1nc(-c2nc(N)cc(N)n2)cs1)c1cc(-c2cccnc2)ccc1C [OR0620]
IC50 [1, 4]: 407 nM
ΔTm (º) (TSA) [2]: 15.71 º
THERMAL SHIFT ASSAY +Tm (°) [2]: 15.7 ± 0.5 °

CCCN(c1nc(-c2nc(N)cc(N)n2)cs1)c1cc(-c2ccc(C(=O)N3CCOCC3)nc2)ccc1C [OR0621]
IC50 [1, 4]: 169 nM
ΔTm (º) (TSA) [2]: 16.63 º
THERMAL SHIFT ASSAY +Tm (°) [2]: 16.6 ± 0.9 °

CCCN(c1nc(-c2nc(N)cc(N)n2)cs1)c1cc(-c2ccc(C(=O)OC)nc2)ccc1C [OR0622]
IC50 [1, 4]: 416 nM
ΔTm (º) (TSA) [2]: 16.54 º
THERMAL SHIFT ASSAY +Tm (°) [2]: 16.5 ± 0.1 °

CCCN(c1nc(-c2nc(N)cc(N)n2)cs1)c1cc(-c2ccc(NS(=O)(=O)N3CCN(C)CC3)nc2)ccc1C [OR0625]
IC50 [1, 4]: 353 nM
ΔTm (º) (TSA) [2]: 16.82 º
THERMAL SHIFT ASSAY +Tm (°) [2]: 16.8 ± 0.7 °

CCCN(c1nc(-c2nc(N)cc(N)n2)cs1)c1cc(-c2ccc3[nH]ccc3c2)ccc1C [OR0626]
IC50 [1, 4]: 5750 nM
ΔTm (º) (TSA) [2]: 16.85 º
THERMAL SHIFT ASSAY +Tm (°) [2]: 16.9 ± 0.5 °

CCCN(c1nc(-c2nc(N)cc(N)n2)cs1)c1cc(-c2ccc(OCCN3CCN(C)CC3)nc2)ccc1C [OR0629]
IC50 [1, 4]: 139 nM
ΔTm (º) (TSA) [2]: 20.6 º
THERMAL SHIFT ASSAY +Tm (°) [2]: 20.6 ± 0.1 °

Cc1ccc(-c2ccc(S(=O)(=O)N3CCN(C)CC3)cc2)cc1N(C)c1nc(-c2nc(N)cc(N)n2)cs1 [OR0631]
IC50 [1, 4]: 2740 nM
ΔTm (º) (TSA) [2]: 16.75 º
THERMAL SHIFT ASSAY +Tm (°) [2]: 16.8 ± 0.1 °

CCN(c1nc(-c2nc(N)cc(N)n2)cs1)c1cc(-c2ccc(S(=O)(=O)N3CCN(C)CC3)cc2)ccc1C [OR0632]
IC50 [1, 4]: 413 nM
ΔTm (º) (TSA) [2]: 17.75 º
THERMAL SHIFT ASSAY +Tm (°) [2]: 17.8 ± 0.1 °

CCCN(c1nc(-c2nc(N)cc(N)n2)cs1)c1cc(-c2ccc(S(=O)(=O)N3CCN(C)CC3)cc2)cc(F)c1C [OR0633]
IC50 [1, 4]: 140 nM
ΔTm (º) (TSA) [2]: 17.25 º
THERMAL SHIFT ASSAY +Tm (°) [2]: 17.3 ± 0.1 °

Cc1ccc(-c2ccc(S(=O)(=O)N3CCN(C)CC3)cc2)cc1N(c1nc(-c2nc(N)cc(N)n2)cs1)C(C)C [OR0636]
IC50 [1, 4]: 301 nM
ΔTm (º) (TSA) [2]: 17.68 º
THERMAL SHIFT ASSAY +Tm (°) [2]: 17.7 ± 0.9 °

Cc1ccc(-c2ccc(S(=O)(=O)N3CCN(C)CC3)cc2)cc1N(CC(C)C)c1nc(-c2nc(N)cc(N)n2)cs1 [OR0637]
IC50 [1, 3]: 84 ± 49 nM
IC50 [1, 4]: 88.3 nM
ΔTm (º) (TSA) [2]: 20.49 º
THERMAL SHIFT ASSAY +Tm (°) [2]: 20.5 ± 0.9 °

CCCN(c1nc(-c2nc(N)cc(N)n2)cs1)c1cc(-c2ccc(S(=O)(=O)N3CCN(CC)CC3)cc2)ccc1C [OR0638]
IC50 [1, 4]: 35 nM
ΔTm (º) (TSA) [2]: 20.22 º
THERMAL SHIFT ASSAY +Tm (°) [2]: 20.2 ± 0.9 °

CCCN(c1nc(-c2nc(N)cc(N)n2)cs1)c1cc(-c2ccc(S(=O)(=O)N3CCNCC3)cc2)ccc1C [OR0639]
IC50 [1, 4]: 119 nM
ΔTm (º) (TSA) [2]: 20.72 º
THERMAL SHIFT ASSAY +Tm (°) [2]: 20.7 ± 0.9 °

CCCN(c1nc(-c2nc(N)cc(N)n2)co1)c1cc(-c2ccc(S(=O)(=O)N3CCN(C)CC3)cc2)ccc1C [OR0640]
IC50 [1, 4]: 3670 nM
ΔTm (º) (TSA) [2]: 18.22 º
THERMAL SHIFT ASSAY +Tm (°) [2]: 18.2 ± 0.9 °

CCCN(c1nc(-c2nc(N)cc(N)n2)cs1)c1cc(-c2ccc(S(=O)(=O)N3CCN(C)CC3)cc2Cl)ccc1C [OR0641]
IC50 [1, 3]: 10.5 ± 5 nM
IC50 [1, 4]: 10 nM
ΔTm (º) (TSA) [2]: 21.11 º
THERMAL SHIFT ASSAY +Tm (°) [2]: 21.1 ± 1.1 °

CCCN(c1nc(-c2nc(N)cc(N)n2)cs1)c1cc(-c2ccc(S(=O)(=O)N3CCN(C)CC3)cc2F)ccc1C [OR0643]
IC50 [1, 3]: 46 ± 18 nM
IC50 [1, 4]: 45.7 nM
ΔTm (º) (TSA) [2]: 20.22 º
THERMAL SHIFT ASSAY +Tm (°) [2]: 20.2 ± 0.9 °

CCCN(c1nc(-c2nc(N)cc(N)n2)cs1)c1cc(-c2c(F)cc(S(=O)(=O)N3CCN(C)CC3)cc2OC)ccc1C [OR0644]
IC50 [1, 4]: 12.1 nM
ΔTm (º) (TSA) [2]: 20.5 º
THERMAL SHIFT ASSAY +Tm (°) [2]: 20.5 ± 1.2 °

CCCN(c1nc(-c2nc(N)cc(N)n2)cs1)c1cc(-c2ccc(S(=O)(=O)N3CCN(C)CC3)cc2OC)ccc1C [OR0645]
IC50 [1, 3]: 67 ± 22 nM
IC50 [1, 4]: 67.4 nM
ΔTm (º) (TSA) [2]: 19.72 º
THERMAL SHIFT ASSAY +Tm (°) [2]: 19.7 ± 0.9 °
